{"source": "patent US8501693B2", "about": "“Use of exendins and exendin agonists and GLP-1 receptor agonists for altering the concentration of fibrinogen” (Amylin Pharmaceuticals, LLC, priority 2006, dated 2013)", "key": {"[1]": {"test_system": "Fibrinogen", "test": "Fibrinogen concentration by the von Clauss clotting method in the 1-year open-label exenatide vs biphasic insulin aspart trial", "format": "in vivo, human", "conditions": "patients with type 2 diabetes", "description": "For test meal data, postprandial glucose incremental AUC0-4h is calculated at baseline and week 52.\nFibrinogen activity is measured by the von Clauss clotting method. By the von Clauss clotting method, thrombin is added to a test sample and the time until clotting is measured. Fibrinogen concentration is determined by comparing clotting time for the test sample to the clotting time of a standard curve for various reference plasmas.\nFibrinogen is measured at baseline, Week 16, Week 52, or at early termination of the study."}, "[2]": {"test_system": "lipoprotein subclass particles (LDL, HDL, VLDL)", "test": "Lipoprotein subclass particle concentration and particle size by proton NMR in the 1-year open-label exenatide vs biphasic insulin aspart trial", "format": "in vivo, human", "conditions": "change from baseline to endpoint", "description": "Lipoprotein subclass particle concentrations and average particle diameters are measured using proton nuclear magnetic resonance spectroscopy.\nThe particle concentrations of different lipoprotein subclasses are obtained by measuring the amplitudes of the characteristic lipid methyl NMR signals. The signal amplitudes of various subclasses are extracted from the overall lipid methyl group signal with a spectral deconvolution algorithm (LipoScience, Inc.). See e.g., Festa. VLDL and LDL particle concentrations are given in nanomoles per liter. HDL particle concentrations are provided in micromoles per liter.\nAverage particle sizes (in nanometers diameter) are computed as the sum of the diameter of the particle subclass multiplied by the relative mass percentage of the subclass as estimated from the amplitude of its methyl NMR signal.\nParticle concentrations and sizes are compared before and after administration of an exendin or exendin agonist. See e.g., Table 1."}, "[3]": {"conditions": "patients with type 2 diabetes, fasting"}, "[4]": {"conditions": "particle concentration, patients with type 2 diabetes"}}}
{"substance": "biphasic insulin aspart 30/70", "values": [{"measurement": "Fibrinogen level, Mean, Baseline", "setting": "[1]; Baseline (before treatment) of the treatment group", "value": 4.22, "unit": "g/L"}, {"measurement": "Fibrinogen level, Mean, Endpoint (LOCF)", "setting": "[1]; Endpoint, last post-baseline measurement carried forward (Week 16, Week 52 or early termination)", "value": 4.16, "unit": "g/L"}, {"measurement": "LDL Particle Size Δ mean (SEM)", "setting": "[2]; patients with type 2 diabetes inadequately controlled by sulphonylurea and metformin, fasting", "value": "+0.11 (0.12) p = .356 nm"}, {"measurement": "HDL Particle Size Δ mean (SEM)", "setting": "[2]; [3]", "value": "+0.04 (0.05) p = .391 nm"}, {"measurement": "VLDL Particle Size Δ mean (SEM)", "setting": "[2]; [3]", "value": "−1.6 (2.2) p = .482 nm"}, {"measurement": "Large HDL Δ mean (SEM)", "setting": "[2]; [4]", "value": "+1.0 (0.4) p = .014 μmol/L"}, {"measurement": "Large LDL Δ mean (SEM)", "setting": "[2]; [4]", "value": "+37.7 (32.8) p = .258 nmol/L"}, {"measurement": "Small LDL Δ mean (SEM)", "setting": "[2]; [4]", "value": "−25.8 (81.2) p = .753 nmol/L"}, {"measurement": "Small VLDL Δ mean (SEM)", "setting": "[2]; [4]", "value": "+8.5 (4.2) p = .049 nmol/L"}, {"measurement": "Total HDL Δ mean (SEM)", "setting": "[2]; [4]", "value": "+2.5 (0.9) p = .012 μmol/L"}, {"measurement": "Total LDL Δ mean (SEM)", "setting": "[2]; [4]", "value": "+5.0 (75) p = .947 nmol/L"}, {"measurement": "Total VLDL Δ mean (SEM)", "setting": "[2]; [4]", "value": "+12.9 (6.6) p = .056 nmol/L"}, {"measurement": "Very Small LDL Δ mean (SEM)", "setting": "[2]; [4]", "value": "−17.0 (64.6) p = .794 nmol/L"}]}
